ChEMBL document CHEMBL6127052, “Discovery of membrane-targeting amphiphilic honokiol derivatives containing an oxazolethione moiety to combat methicillin-resistant Staphylococcus aureus (MRSA) infections” (Eur J Med Chem, 2024)
Calls of active or inactive are those of the source. The rule behind the calls is not given here.

Columns and labels:
[1] = tested on: Staphylococcus aureus; assay: Antibacterial activity against methicillin-resistant Staphylococcus aureus N315 by CLSI based micro-broth dilution method; assay type: functional
[2] = tested on: Staphylococcus aureus; assay: Antibacterial activity against methicillin-resistant Staphylococcus aureus clinical isolate M12 by CLSI based micro-broth dilution method; assay type: functional
[3] = tested on: Staphylococcus aureus; assay: Antibacterial activity against methicillin-resistant Staphylococcus aureus clinical isolate M13 by CLSI based micro-broth dilution method; assay type: functional
[4] = tested on: Staphylococcus aureus; assay: Antibacterial activity against methicillin-resistant Staphylococcus aureus clinical isolate M20 by CLSI based micro-broth dilution method; assay type: functional
[5] = tested on: Staphylococcus aureus; assay: Bactericidal activity against Staphylococcus aureus ATCC 29213 at 8 times MIC incubated for 6 hrs by time-kill assay relative to control; assay type: functional
[6] = tested on: Staphylococcus aureus; assay: Induction of resistance development in Staphylococcus aureus ATCC 29213 at 0.5 times MIC treated for 20 days of consecutive passages; assay type: functional, organism-based; settings: time 20.0 day
[7] = tested on: Staphylococcus aureus; assay: Induction of membrane permeability in methicillin-resistant Staphylococcus aureus clinical isolate M12 at 8 to 32 times MIC measured for 15 mins by SYTOX Green dye based analysis; assay type: functional, organism-based
[8] = tested on: Staphylococcus aureus; assay: Disruption of cell membrane in methicillin-resistant Staphylococcus aureus clinical isolate M12 assessed as fold increase in intracellular ROS level at 128 ug/ml incubated for 40 mins by DCFH-DA probe based analysis relative to control; assay type: functional; settings: dose 128 µg/ml
[9] = tested on: Staphylococcus aureus; assay: Disruption of cell membrane in methicillin-resistant Staphylococcus aureus clinical isolate M12 assessed as increase in protein leakage incubated for 4 hrs by BCA assay; assay type: functional, organism-based; settings: dose <= 16.0 µg/ml
[10] = Cytotoxicity against human L02 cells assessed as cell viability at 64 ug/ml by CCK8 assay relative to control; assay type: toxicity, cell-based; settings: at 64 µg/mL, read-out: Activity
[11] = Toxicity in KM mouse assessed as adverse effect at 20 mg/kg, sc; assay type: organism-based; settings: in vivo
[12] = Toxicity in KM mouse assessed as change in creatinine level at 20 mg/kg, sc measured after 24 hrs; assay type: organism-based; settings: in vivo
[13] = Toxicity in KM mouse assessed as change in HCT level at 20 mg/kg, sc measured after 24 hrs; assay type: organism-based; settings: in vivo
[14] = Toxicity in KM mouse assessed as degeneration in cardiac muscle fibers at 20 mg/kg, sc measured after 24 hrs by H and E staining based analysis; assay type: organism-based; settings: in vivo
[15] = Toxicity in KM mouse assessed as inflammatory cell infiltration in lung epithelial cells at 20 mg/kg, sc measured after 24 hrs by H and E staining based analysis; assay type: organism-based; settings: in vivo
[16] = Toxicity in KM mouse assessed as pathological change in lung at 20 mg/kg, sc measured after 24 hrs by H and E staining based analysis; assay type: organism-based; settings: in vivo
[17] = Toxicity in KM mouse assessed as pathological change in spleen at 20 mg/kg, sc measured after 24 hrs by H and E staining based analysis; assay type: organism-based; settings: in vivo
[18] = Toxicity in BALB/c mouse assessed as knotted hair at 40 mg/kg, ip bid for 7 days; assay type: organism-based; settings: in vivo, 168 h, time 7 day
[19] = Toxicity in BALB/c mouse assessed as feeding abnormality at <15 mg/kg, ip bid for 7 days; assay type: organism-based; settings: in vivo, 168 h, time 7 day
[20] = Toxicity in BALB/c mouse assessed as degeneration of hepatocytes at 15 mg/kg, ip bid for 7 days; assay type: organism-based; settings: in vivo, 168 h, time 7 day
[21] = Toxicity in BALB/c mouse assessed as inflammatory cell infiltration in hepatocytes at 15 mg/kg, ip bid for 7 days; assay type: organism-based; settings: in vivo, 168 h, time 7 day
[22] = Toxicity in BALB/c mouse assessed as degeneration of renal tubular epithelial cells at 15 mg/kg, ip bid for 7 days; assay type: organism-based; settings: in vivo, 168 h, time 7 day
[23] = Toxicity in BALB/c mouse assessed as edema in renal tubular epithelial cells at 15 mg/kg, ip bid for 7 days; assay type: organism-based; settings: in vivo, 168 h, time 7 day
[24] = Toxicity in BALB/c mouse assessed as necrosis in renal tubular epithelial cells at 15 mg/kg, ip bid for 7 days; assay type: organism-based; settings: in vivo, 168 h, time 7 day
[25] = tested on: Staphylococcus aureus; assay: Bactericidal activity against methicillin-resistant Staphylococcus aureus clinical isolate M12 infected in KM mouse assessed as decrease in inflammatory cells in dermis at 10 mg/kg, sc measured after 24 hrs; assay type: functional, organism-based
[26] = tested on: Staphylococcus aureus; assay: Antibacterial activity against methicillin-resistant Staphylococcus aureus clinical isolate M12 infected in KM mouse assessed as decrease in erythematous pustules at infected skin on back of animal at 5 mg/kg, sc measured after 24 hrs; assay type: functional, organism-based
[27] = tested on: Staphylococcus aureus; assay: Antibacterial activity against methicillin-resistant Staphylococcus aureus clinical isolate M12 infected in KM mouse assessed as decrease in bacterial load in skin tissues at 5 mg/kg, sc measured after 24 hrs by drop-plate counting method (reference value: 6.7); assay type: functional
[28] = tested on: Staphylococcus aureus; assay: Antibacterial activity against methicillin-resistant Staphylococcus aureus clinical isolate M12 infected in KM mouse assessed as reduction in TNF-alpha level at infection site at 5 mg/kg, sc measured after 24 hrs by ELISA; assay type: functional
[29] = tested on: Staphylococcus aureus; assay: Antibacterial activity against methicillin-resistant Staphylococcus aureus clinical isolate M12 infected in KM mouse assessed as reduction in TNF-alpha level at infection site at 10 mg/kg, sc measured after 24 hrs by ELISA; assay type: functional
[30] = Toxicity in KM mouse infected with methicillin-resistant Staphylococcus aureus clinical isolate M12 assessed as damage in kidney at 5 to 10 mg/kg, sc measured after 24 hrs by H and E staining based analysis; assay type: organism-based; settings: in vivo, dose 5-10 mg/kg
[31] = tested on: Staphylococcus aureus; assay: Antibacterial activity against methicillin-resistant Staphylococcus aureus clinical isolate M12 infected in sepsis BALB/c mouse model assessed as decrease in bacterial load in kidney at 12 mg/kg, ip administered consecutively at 12 hr-interval for 24 hrs measured after 24 hrs post-last dose; assay type: functional; settings: time 48 hrs
[32] = tested on: Staphylococcus aureus; assay: Antibacterial activity against methicillin-resistant Staphylococcus aureus clinical isolate M12 infected in sepsis BALB/c mouse model assessed as decrease in bacterial load in spleen at 12 mg/kg, ip administered consecutively at 12 hr-interval for 24 hrs measured after 24 hrs post-last dose; assay type: functional; settings: time 48 hrs
[33] = Toxicity in sepsis BALB/c mouse model infected with methicillin-resistant Staphylococcus aureus clinical isolate M12 assessed as survival rate at 12 mg/kg, ip administered consecutively at 12 hr-interval for 7 days measured after 24 hrs post-last dose; assay type: organism-based; settings: in vivo, 192 h, time 8 day
[34] = tested on: Staphylococcus aureus; assay: Antibacterial activity against methicillin-resistant Staphylococcus aureus clinical isolate M12 infected in sepsis BALB/c mouse model assessed as decrease in degeneration of hepatocytes at 6 mg/kg, ip administered consecutively at 12 hr-interval for 24 hrs measured after 24 hrs post-last dose by H and E staining based analysis; assay type: functional, organism-based; settings: time 48.0 hrs
[35] = tested on: Staphylococcus aureus; assay: Antibacterial activity against methicillin-resistant Staphylococcus aureus clinical isolate M12 infected in sepsis BALB/c mouse model assessed as decrease in pathological change in red medulla of spleen at 6 mg/kg, ip administered consecutively at 12 hr-interval for 24 hrs measured after 24 hrs post-last dose by H and E staining based analysis; assay type: functional, organism-based; settings: time 48.0 hrs
[36] = tested on: Staphylococcus aureus; assay: Antibacterial activity against methicillin-resistant Staphylococcus aureus clinical isolate M12 infected in sepsis BALB/c mouse model assessed as decrease in degeneration of renal tubular epithelial cells at 6 to 12 mg/kg, ip administered consecutively at 12 hr-interval for 24 hrs measured after 24 hrs post-last dose by H and E staining based analysis; assay type: functional, organism-based; settings: dose 6-12 mg/kg, time 48.0 hrs

C=CCc1cc(-c2ccc(OCCC[N+](C)(C)CC(=O)NCCCC)c(CC=C)c2)c2oc(=S)n(Cc3ccc(F)cc3)c2c1.[Br-]
MIC [1]: 4 µg/mL
MIC [2]: 2 µg/mL
MIC [3]: 4 µg/mL
MIC [4]: 2 µg/mL
Activity [5]: 100%
Activity [6]: inactive
Activity [7]: Active
fold change (FC) [8]: ~1.8
Activity [9]: Dose-Dependent Effect
viability at 64 ug/ml [10]: ~70%
Activity [11]: Non-Toxic
Activity [12]: Non-Toxic
Activity [13]: Non-Toxic
Activity [14]: Non-Toxic
Activity [15]: Non-Toxic
Activity [16]: Non-Toxic
Activity [17]: Non-Toxic
Activity [18]: Toxic
Activity [19]: Non-Toxic
Activity [20]: Non-Toxic
Activity [21]: Non-Toxic
Activity [22]: Non-Toxic
Activity [23]: Non-Toxic
Activity [24]: Non-Toxic
Activity [25]: Active
Activity [26]: inactive
Activity [27]: 1.4 log10CFU/g
Activity [28]: 91.5 pg/mL
Activity [29]: 102.6 pg/mL
Activity [30]: Non-Toxic
Activity [31]: 1.45 log10CFU/g
Activity [32]: 1.67 log10CFU/g
Survival [33]: 33.3%
Activity [34]: inactive
Activity [35]: inactive
Activity [36]: Active
